Data: US7538101B2, “1,1-dioxo-thiomorpholinyl indolyl methanone derivatives” (Hoffmann-La Roche Inc., priority 2005, dated 2009)

Biological target: T1, histamine 3 receptor (H3R) (Homo sapiens, UniProt Q9Y5N1)
T1 construct: expressed in transfected cells; host or cells: CHO cells (HR3-CHO cell line), membrane preparation
Assay: Binding assay with 3H-(R)α-methylhistamine (competition binding, membranes of the human HR3-CHO cell line)
Settings: membrane of human HR3-CHO cell line; 3H(R)α-Methylhistamine 1 nM; Ki calculated from IC50 by Cheng-Prusoff equation
Description: Binding Assay with ^3H—(R)α-methylhistamine
Saturation binding experiments were performed using HR3-CHO membranes prepared as described in Takahashi, K, Tokita, S., Kotani, H. (2003) J. Pharmacol. Exp. Therapeutics 307, 213-218.
An appropriate amount of membrane (60 to 80 μg protein/well) was incubated with increasing concentrations of ^3H(R)α-Methylhistamine di-hydrochloride (0.10 to 10 nM). Non specific binding was determined using a 200 fold excess of cold (R)α-Methylhistamine dihydrobromide (500 nM final concentration). The incubation was carried out at room temperature (in deep-well plates shaking for three hours). The final volume in each well was 250 μl. The incubation was followed by rapid filtration on GF/B filters (pre-soaked with 100 μl of 0.5% PEI in Tris 50 mM shaking at 200 rpm for two hours). […] After harvesting, the plates were dried at 55° C. for 60 min, then we added scintillation fluid (Microscint 40, 40 microl in each well) and the amount of radioactivity on the filter was determined in Packard top-counter after shaking the plates for two hours at 200 rpm at room temperature. […]
All compounds were tested at a single concentration in duplicates. […] Ki's were calculated from IC50 based on Cheng-Prusoff equation (Cheng, Y, Prusoff, W H (1973) Biochem Pharmacol 22, 3099-3108).

T1 sequence (Q9Y5N1 whole entry): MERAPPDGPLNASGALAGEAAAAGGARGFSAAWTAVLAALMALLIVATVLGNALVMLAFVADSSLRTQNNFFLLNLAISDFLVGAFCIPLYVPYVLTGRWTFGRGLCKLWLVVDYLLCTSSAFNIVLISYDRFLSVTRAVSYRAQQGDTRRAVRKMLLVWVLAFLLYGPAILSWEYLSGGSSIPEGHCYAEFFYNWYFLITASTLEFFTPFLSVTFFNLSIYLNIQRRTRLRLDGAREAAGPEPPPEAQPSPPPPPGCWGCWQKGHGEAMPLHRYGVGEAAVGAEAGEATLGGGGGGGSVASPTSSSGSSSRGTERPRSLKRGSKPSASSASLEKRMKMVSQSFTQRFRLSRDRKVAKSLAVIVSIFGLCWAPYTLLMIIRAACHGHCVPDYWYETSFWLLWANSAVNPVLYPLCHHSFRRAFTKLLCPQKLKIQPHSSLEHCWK

Ki [nM] | SMILES
3 | CC(C)N1CCC(Oc2ccc3c(c2)cc(C(=O)N2CCS(=O)(=O)CC2)n3CC(F)(F)F)CC1 [Example 1, (1,1-Dioxo-thiomorpholin-4-yl)-[5-(1-isopropyl-piperidin-4-yloxy)-1-(2,2,2-trifluoro-ethyl)-1H-indol-2-yl]-methanone]
49 | CC(C)N1CC[C@H](Oc2ccc3[nH]c(C(=O)N4CCS(=O)(=O)CC4)cc3c2)C1 [Example 4, (1,1-Dioxo-thiomorpholin-4-yl)-[5-(1-isopropyl-pyrrolidin-3S-yloxy)-1H-indol-2-yl]-methanone]
